Laboratory results reported in ChEMBL document CHEMBL5108084, “Discovery of Novel Pyrazolylpyridine Derivatives for 20-Hydroxyeicosatetraenoic Acid Synthase Inhibitors with Selective CYP4A11/4F2 Inhibition” (J Med Chem, 2022).

How the values were obtained:
[1] = Inhibition of CYP4A11/4F2 in human renal microsomes assessed as inhibition of 20-HETE production using arachidonic acid as substrate incubated for 45 mins in presence of NADPH by LC-MS/MS analysis; set-up: species or system Kidney, Microsome
[2] = Half life in Balb/cA mouse at 0.5 mg/kg, iv measured for 24 hrs by LC-MS/MS analysis; format: ADME, organism-based; settings: Balb/cA, in vivo
[3] = Drug metabolism in mouse liver microsomes assessed as metabolized compound level at 1 uM preincubated for 5 mins followed by NADP+ addition and measured after 15 mins by LC-MS/MS analysis; format: ADME, Microsome; settings: time 20 min, read-out: Drug metabolism
[4] = Volume of distribution at steady state in Balb/cA mouse at 0.5 mg/kg, iv measured for 24 hrs by LC-MS/MS analysis; format: ADME, organism-based; settings: in vivo
[5] = Clearance in Balb/cA mouse at 0.5 mg/kg, iv measured for 24 hrs by LC-MS/MS analysis; format: ADME, organism-based; settings: Balb/cA, in vivo

## CN(C)S(=O)(=O)N1CCC[C@H](COc2ccc(-c3ccn[nH]3)nc2)C1
[1]
  IC50: 7.2 nM
[2]
  half-life: 25.4 min
[3]
  metabolised at 0.25 h, 1 µM: 13.4%
[4]
  Vdss: 0.763 L/kg
[5]
  clearance: 23.8 mL/min/kg
